According to patent US8314150B2, “Kinase protein binding inhibitors” (priority 2008, dated 2012):

Test system: Panc-1 and Miapaca-2 pancreatic cancer cells
Assay: MTT cell viability assay, pancreatic cancer cells
Type: cell-based, human
Details: 72 hours
Method: The 3-(4,5-dimethylthiazol-2-yl)-5-(3-carboxymethoxyphenyl)-2-(4-sulfophenyl)-2H-tetrazolium compound from Promega Viability kit (Madison, Ill.) was added, and the cells were incubated at 37° C. for 1-2 hours. The optical density on 96-plate was analyzed with a microplate reader at 490 nm to determine cell viability. In addition, cells were stained with trypan blue after 24 hours of treatment with Y15 and the percent of cells that stained positive were determined with a hemacytometer. Cell adhesion assay—The poly-L-Lysine or Collagen (5 μg/ml) coated 96-well plates were blocked with the blocking buffer (medium with 0.5% BSA) for 1 hour at 37 C. […] Then 2% SDS was added to the dried plated and OD at 590 nm was measured for detecting cell adhesion. […] Protein concentrations were determined using a Bio-Rad Kit. The boiled samples were loaded on Ready SDS-10% PAGE gels (Bio Rad, Inc) and used for Western blot analysis with the protein-specific antibody. […] Detachment Assay—Cells were plated with and without inhibitors for 24 hours, and detached and attached cells were counted in a hemocytometer. We calculated the percent of detachment by dividing the number of detached cells by the total number of cells. The percent of detached cells was calculated in three independent experiments. […] For each experiment 300 cells per treatment were counted. […]

Cl.Cl.Cl.Cl.Nc1cc(N)c(N)cc1N [Y15, 1,2,4,5-benzenetetraamine tetrahydrochloride]
dose from which cell viability was inhibited: 1 µM
